Results taken from patent publication US20210300900A1, “OGA INHIBITOR COMPOUNDS” (Janssen Pharmaceutica NV, priority 2018, published 2021).

Legend:
[1] = target: T1, OGA (Homo sapiens, UniProt O60502); assay: OGA cellular assay (ICC detection of O-GlcNAcylated proteins in HEK293 cells inducible for P301L mutant human Tau); type: cell-based; settings: 6 hours incubation; for Emax: HEK293, HEK293 cells inducible for P301L mutant human Tau; for Emax / Cellular Emax (%): maximum = Thiamet G 200 uM; for EC50 / Cellular Emax (%) / Cellular hOGA; pEC50: HEK293 cells inducible for P301L mutant human Tau; for EC50: read-out: Cellular hOGA, pEC50 (converted)
T1 construct: endogenous in cells; host or cells: HEK293 cells inducible for P301L mutant human Tau (isoform 2N4R)
T1 sequence (O60502 1-916): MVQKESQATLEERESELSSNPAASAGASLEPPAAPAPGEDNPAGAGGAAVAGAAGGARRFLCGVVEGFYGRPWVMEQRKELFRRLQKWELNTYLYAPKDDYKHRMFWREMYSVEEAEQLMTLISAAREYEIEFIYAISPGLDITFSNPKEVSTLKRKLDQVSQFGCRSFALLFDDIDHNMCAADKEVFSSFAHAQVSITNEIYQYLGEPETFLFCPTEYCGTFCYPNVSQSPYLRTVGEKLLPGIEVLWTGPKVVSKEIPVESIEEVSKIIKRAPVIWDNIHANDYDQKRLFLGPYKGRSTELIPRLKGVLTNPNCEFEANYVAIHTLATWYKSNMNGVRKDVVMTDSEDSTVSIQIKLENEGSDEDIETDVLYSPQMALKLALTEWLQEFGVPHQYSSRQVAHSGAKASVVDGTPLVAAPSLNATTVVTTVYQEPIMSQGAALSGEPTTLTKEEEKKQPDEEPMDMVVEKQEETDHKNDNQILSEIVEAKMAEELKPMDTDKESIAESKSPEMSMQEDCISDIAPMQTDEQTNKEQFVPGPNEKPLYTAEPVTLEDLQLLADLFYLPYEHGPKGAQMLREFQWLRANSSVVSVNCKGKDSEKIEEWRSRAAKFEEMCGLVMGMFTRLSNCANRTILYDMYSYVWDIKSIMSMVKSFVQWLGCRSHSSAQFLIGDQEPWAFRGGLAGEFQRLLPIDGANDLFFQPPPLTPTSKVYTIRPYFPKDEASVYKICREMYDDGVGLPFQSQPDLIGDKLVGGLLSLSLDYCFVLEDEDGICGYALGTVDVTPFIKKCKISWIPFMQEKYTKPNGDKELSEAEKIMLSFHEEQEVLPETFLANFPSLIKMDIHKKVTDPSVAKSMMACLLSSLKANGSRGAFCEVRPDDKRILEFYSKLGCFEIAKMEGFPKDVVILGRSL
Description: HEK293 cells inducible for P301L mutant human Tau (isoform 2N4R) were established at Janssen. Thiamet-G was used for both plate validation (high control) and as reference compound (reference EC50 assay validation). OGA inhibition is evaluated through the immunocytochemical (ICC) detection of O-GlcNAcylated proteins by the use of a monoclonal antibody (CTD110.6; Cell Signaling, #9875) detecting O-GlcNAcylated residues as previously described (Dorfmueller et al. 2010 Chemistry & biology, 17:1250). Inhibition of OGA will result in an increase of O-GlcNAcylated protein levels resulting in an increased signal in the experiment. Cell nuclei are stained with Hoechst to give a cell culture quality control and a rough estimate of immediate compounds toxicity, if any. ICC pictures are imaged with a Perkin Elmer Opera Phenix plate microscope and quantified with the provided software Perkin Elmer Harmony 4.1.
Cells were propagated in DMEM high Glucose (Sigma, #D5796) following standard procedures. 2 days before the cell assay cells are split, counted and seeded in Poly-D-Lysine (PDL) coated 96-wells (Greiner, #655946) plate at a cell density of 12,000 cells per cm^2 (4,000 cells per well) in 100 μl of Assay Medium (Low Glucose medium is used to reduce basal levels of GlcNAcylation) (Park et al. 2014 The Journal of biological chemistry 289:13519). At the day of compound test medium from assay plates was removed and replenished with 90 μl of fresh Assay Medium. 10 μl of compounds at a 10 fold final concentration were added to the wells. Plates were centrifuged shortly before incubation in the cell incubator for 6 hours. DMSO concentration was set to 0.2%. Medium is discarded by applying vacuum. For staining of cells medium was removed and cells washed once with 100 μl D-PBS (Sigma, #D8537). From next step onwards unless other stated assay volume was always 50 μl and incubation was performed without agitation and at room temperature. Cells were fixed in 50 μl of a 4% paraformaldehyde (PFA, Alpha aesar, #043368) PBS solution for 15 minutes at room temperature. […] Before analysis samples were washed 2 times manually for 5 minutes in ICC base buffer.
Imaging is performed using Perkin Elmer Phenix Opera using a water 20×objective and recording 9 fields per well. Intensity readout at 488 nm is used as a measure of O-GlcNAcylation level of total proteins in wells. To assess potential toxicity of compounds nuclei were counted using the Hoechst staining. IC50-values are calculated using parametric non-linear regression model fitting. As a maximum inhibition Thiamet G at a 200 uM concentration is present on each plate. In addition, a concentration response of Thiamet G is calculated on each plate.

[2] = target: T2, recombinant human Meningioma Expressed Antigen 5 (MGEA5), also referred to as O-GcNAcase (OGA) (Homo sapiens, UniProt O60502); assay: OGA biochemical assay (inhibition of FM-GlcNAc hydrolysis, fluorescence); settings: FM-GlcNAc substrate; for Emax: read-out: Enzymatic Emax (%); for IC50: read-out: Enzymatic hOGA, pIC50 (converted)
T2 construct: Full length OGA enzyme was purchased at OnGene (cat #TP322411); purchased OnGene (so in the source)
T2 sequence (O60502 1-916): T1 sequence (O60502 1-916)
Outline: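 Full-length recombinant human OGA (2 nM) pre-incubated 60 min with compound, then FM-GlcNAc (100 uM final) added in 200 mM citrate/phosphate pH 7.2 with 0.005% Tween-20; 6 h at room temperature, stopped with pH 11.0 carbonate. Fluorescein read at ex 485/em 538 nm; IC50 and Hill coefficient from curve fit against no-inhibitor and saturating-standard controls.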

Row | Structure (SMILES) | Emax [1] [%] | EC50 [1] [µM] | Emax [2] [%] | IC50 [2] [µM] | Cellular Emax (%) ([1]; listed as 118) | Cellular Emax (%) ([1]; listed as 76) | Enzymatic Emax (%) ([2]; listed as 76) | Enzymatic Emax (%) [2] [%] | Cellular hOGA; pEC50 [1] | Cellular Emax (%) [1] [%] | Enzymatic hOGA; pIC50 [2]
1 | COc1cc(C(C)N2CC[C@H](Cc3cc(C)nc(OC)c3)C2)c(F)cn1 (mixture of isomers) [Product 130] | 4 | > 1 | 95 | 0.871 |  |  |  |  |  |  | 
2 | COc1cc(C[C@H]2CCCN(C(C)c3nc(OC)ccc3F)C2)cc(C)n1 (stereo partly shown) [Product 118] |  | 0.219 | 99 | 0.0871 | 82 |  |  |  |  |  | 
3 | COc1cc(NC[C@H]2CCCN(C(C)c3nc(OC)ccc3F)C2)cc(C)n1 (mixture of isomers) [Product 90] | 79 | 0.117 | 102 | 0.0123 |  |  |  |  |  |  | 
4 | COc1cc(C[C@H]2CCCN(C(C)c3nc(OC)ccc3F)C2)cc(C)n1 (stereo partly shown) [Product 76] |  | > 1 |  | 0.0525 |  | 30 | 101 |  |  |  | 
5 | COc1ccc(F)c(C(C)N2CCC[C@H](Cc3cc(C)nc(C(F)(F)F)c3)C2)n1 (stereo partly shown) [Product 77] | 49 | 0.955 |  | 0.0148 |  |  |  | 101 |  |  | 
6 | COc1ccc(F)c(C(C)N2CCCC(Oc3cc(C)nc(C)c3)C2)n1 (stereo not shown) [Product 137] | 4 | > 1 | 102 | 0.107 |  |  |  |  |  |  | 
7 | CNC(=O)c1cncc(C(C)N2CCC[C@H](Cc3cc(C)nc(C)c3)C2)c1 (mixture of isomers) [Product 40] | 72 | 0.407 | 101 | 0.0115 |  |  |  |  |  |  | 
8 | COc1ccc(F)c(C(C)N2CCCC(c3cc(C)nc(C)c3)C2)n1 (stereo not shown) [Product 74] | 48 | 0.676 | 102 | 0.0355 |  |  |  |  |  |  | 
9 | CC(=O)Nc1cc(CN2CCC[C@H](Cc3cc(C)nc(C)c3)C2)nn1C [Product 6] | 11 | > 1 | 100 | 0.174 |  |  |  |  |  |  | 
10 | Cc1cc(C[C@H]2CCCN(Cc3cc(C4CC4)[nH]n3)C2)cc(C)n1 [Product 20] | 11 | > 1 | 96 | 0.851 |  |  |  |  |  |  | 
11 | COc1cc(C[C@H]2CCCN(C(C)c3nc(OC)ccc3F)C2)cc(C(F)(F)F)n1 (mixture of isomers) [Product 79] | 8 | > 1 | 104 | 0.0437 |  |  |  |  |  |  | 
12 | CCOc1cncc(C(C)N2CCC[C@H](Cc3cc(C)nc(C)c3)C2)c1 (mixture of isomers) [Product 44] | 41 | > 1 | 100 | 0.0269 |  |  |  |  |  |  | 
13 | COc1ccc(F)c([C@H](C)N2CCC[C@H](Cc3cc(C)nc(C)c3)C2)n1 [Product 42] |  |  |  |  |  |  |  | 103 | 7.03 | 100 | 7.88

More lines, now with the values ahead:

Row | Emax [1] [%] | EC50 [1] [µM] | Emax [2] [%] | IC50 [2] [µM] | Cellular Emax (%) ([1]; listed as 118) | Cellular Emax (%) ([1]; listed as 76) | Enzymatic Emax (%) ([2]; listed as 76) | Enzymatic Emax (%) [2] [%] | Cellular hOGA; pEC50 [1] | Cellular Emax (%) [1] [%] | Enzymatic hOGA; pIC50 [2] | Structure (SMILES)
14 | 83 | 0.2 | 102 | 0.0186 |  |  |  |  |  |  |  | COc1cc(C[C@H]2CCCN(C(C)c3cc(NC(C)=O)[nH]n3)C2)cc(C)n1 (stereo partly shown) [Product 66]
15 | 42 | > 1 | 101 | 0.0437 |  |  |  |  |  |  |  | COCc1cc(C(C)N2CCC[C@H](Cc3cc(C)nc(C)c3)C2)n[nH]1 (stereo partly shown) [Product 19]
16 | 84 | 0.0479 | 102 | 0.00257 |  |  |  |  |  |  |  | CC(=O)Nc1cc(C(C)N2CCC[C@H](Cc3cc(C)nc(C)c3)C2)n[nH]1 (stereo in doubt) [Product 3]
17 |  |  |  |  |  |  |  | 101 | 6.05 | 31 | 7.45 | CCOc1cc([C@H](C)N2CCC[C@H](Cc3cc(C)nc(C)c3)C2)n[nH]1 [Product 16]
18 | 12 | > 1 | 102 | 0.11 |  |  |  |  |  |  |  | CC(=O)Nc1nc(C(C)N2CCC[C@H](Cc3cc(C)nc(C)c3)C2)c[nH]1 (mixture of isomers) [Product 136]
19 |  |  |  |  |  |  |  | 104 | 7.44 | 80 | 8.91 | CC(=O)Nc1cc([C@H](C)N2CCC[C@H](Cc3cc(C)nc(C)c3)C2)n[nH]1 [Product 5]
